Experiments:
Format in all cases: physicochemical
[1] = Viscosity, Brookfield viscometer DV-II+; settings: 25° C., spindle No. 2, 12 rpm
Method: Viscosity of ester compounds was measured using Brookfield viscometer DV-II+ (spindle No. 2, 12 rpm, 25° C.). As a comparison, viscosity of oil agents commonly used in cosmetic products was also measured.

[2] = Smoothness (MIU, MMD), KES-SE Friction Tester on artificial leather; settings: for MIU (mean frictional coefficient) / MMD (fluctuation of mean frictional coefficient): 25° C., 0.1 ml on artificial leather, average of three
Method: Smoothness of ester compounds was measured using KES-SE Friction Tester (Kato Tech Co., Ltd.) with a detection-unit jig (an accessory of the tester, made of silicone rubber with irregularities resembling a human finger) and artificial leather (artificial leather Supplare produced by Idemitsu Technofine Co., Ltd.). On the artificial leather, 0.1 ml of an ester compound was droped. The jig was contacted to the site on the surface of the artificial leather where the oil agent was dropped. Temperature of the leather, oil agent and jig was adjusted to 25° C. in a constant temperature bath. Then, the jig was moved back and forth once at the same site with a speed of 1 mm/s (the moving distance of the jig was approximately 80 mm in one back-and-forth movement), and a mean frictional coefficient (MIU) and a fluctuation of mean frictional coefficient (MMD) for one back-and-forth movement were measured. The measurement was performed three times and the average values of MIU and MMD were calculated, which were used as indices of smoothness. For comparison, MIU and MMD of the various ester compounds used in the viscosity measurement were also measured.

[3] = Ultraviolet absorber solubility in oily bases; also: key: C: Soluble; N: Insoluble; (N): Since it is insoluble when ultraviolet absorber is 3%, it is judged to be probably insoluble at 5% as well
Method: Their state after 1 week was evaluated visually.

[4] = Glossiness (refractive index), Abbe refractometer NTR-2T; settings: 20° C.
Method: Measurement is carried out using Abbe refractometer NTR-2T (Atago Co., Ltd.) at 20° C., and resulting values represent refractive index.

[5] = Compatibility with various types of oil agent; design: key to Compatibility with Hydrogenated polyisobutene / Compatibility with Isononyl isononanoate / Compatibility with Neopentyl glycol diethylhexanoate / Compatibility with Triethylhexanoin / Compatibility with Octyldodecanol / Compatibility with Polyglyceryl-2 triisostearate / Compatibility with Diisostearyl malate / Compatibility with Olive oil / Compatibility with Isostearic acid / Compatibility with Cyclomethicone / Compatibility with Dimethicone (10 mm^2/s) / Compatibility with Ethanol / Compatibility with Glycerin / Compatibility with Squalane / Compatibility with Mineral oil: C: Compatible; N: Not compatible; settings: for Compatibility with Cyclomethicone / Compatibility with Dimethicone (10 mm^2/s) / Compatibility with Ethanol / Compatibility with Glycerin / Compatibility with Hydrogenated polyisobutene / Compatibility with Isostearic acid / Compatibility with Mineral oil / Compatibility with Octyldodecanol / Compatibility with Olive oil / Compatibility with Polyglyceryl-2 triisostearate / Compatibility with Squalane / Compatibility with Triethylhexanoin: 25° C., visual after 1 week
Method: Each of TCDNP and TCDDNP obtained in Synthesis Examples 1 and 8 and each of oily bases are combined with a weight ratio of 9:1 or 1:1, and dissolved in a water bath at 80-90° C. for approximately 30 min with stirring, then cooled to 50° C. with stirring, and stored in a thermostatic chamber at 25° C. Their compatibility was evaluated by visually checking the state after 1 week.

[6] = Tinosorb S 7%, 25° C., visual after 1 week
[7] = Tinosorb S 5%, 25° C., visual after 1 week
[8] = Tinosorb S 5%, judged from insolubility at 3%
[9] = Tinosorb S 2%, 25° C., visual after 1 week

Compound: CCCCCCCCCCC(CO)CCCCCCCCCC [Decyldodecanol, reference compound]
- Viscosity [1]: 69 mPa · s
- MIU (mean frictional coefficient) [2]: 0.40
- MMD (fluctuation of mean frictional coefficient) [2]: 0.006

Compound: CC(C)COC(=O)CCCCC(=O)OCC(C)C [Diisobutyl adipate]
- Solubility of ultraviolet absorber Tinosorb S in the component [3, 6]: N

Compound: CCOC(=O)CCCCCCCCCCCCCCC(C)C [Ethyl isostearate]
- Solubility of ultraviolet absorber Tinosorb S in the component [3, 7]: N

Compound: CC(C)CCCCCCCOC(=O)C(C)(C)C [Isodecyl neopentanoate, reference compound]
- Refractive index [4]: 1.430
- Viscosity [1]: 4 mPa · s
- MIU (mean frictional coefficient) [2]: 0.15
- MMD (fluctuation of mean frictional coefficient) [2]: 0.005
- Solubility of ultraviolet absorber Tinosorb S in the component [3, 7]: N

Compound: CC(C)CCCCCCOC(=O)CCCCCC(C)C [Isononyl isononanoate]
- Solubility of ultraviolet absorber Tinosorb S in the component [3, 7]: N

Compound: CC(C)CCCCCCCCCCCCCCCOC(=O)C(C)(C)C [Isostearyl neopentanoate, reference compound]
- Refractive index [4]: 1.446
- Viscosity [1]: 14 mPa · s
- MIU (mean frictional coefficient) [2]: 0.27
- MMD (fluctuation of mean frictional coefficient) [2]: 0.006
- Solubility of ultraviolet absorber Tinosorb S in the component [3, 7]: N

Compound: CC(C)CCCCCCCCCCOC(=O)CCCCCC(C)C [Isotridecyl isononanoate, reference compound]
- Refractive index [4]: 1.445
- Solubility of ultraviolet absorber Tinosorb S in the component [3, 8]: (N)

Compound: CCCCCCCCCC(=O)OCC(C)(C)COC(=O)CCCCCCCCC [Neopentyl glycol dicaprate]
- Solubility of ultraviolet absorber Tinosorb S in the component [3, 6]: N

Compound: CCCCC(CC)C(=O)OCC(C)(C)COC(=O)C(CC)CCCC (stereo not shown) [Neopentyl glycol diethylhexanoate]
- Solubility of ultraviolet absorber Tinosorb S in the component [3, 7]: N

Compound: CC(C)CCCCCC(=O)OCC(C)(C)COC(=O)CCCCCC(C)C [Neopentyl glycol diisononanoate]
- Solubility of ultraviolet absorber Tinosorb S in the component [3, 8]: (N)

Compound: CCCCCCCCCCC(CO)CCCCCCCC (stereo not shown) [Octyldodecanol, reference compound]
- Viscosity [1]: 49 mPa · s
- MIU (mean frictional coefficient) [2]: 0.39
- MMD (fluctuation of mean frictional coefficient) [2]: 0.007

Compound: CCCCCCCCCCCCCCCCCC(=O)OC(CCCCCC)CCCCCCCCCCC(=O)OCC(CCCCCCCC)CCCCCCCCCC (stereo not shown) [Octyldodecyl stearoyloxy stearate, reference compound]
- Viscosity [1]: 96 mPa · s
- MIU (mean frictional coefficient) [2]: 0.41
- MMD (fluctuation of mean frictional coefficient) [2]: 0.006
- Solubility of ultraviolet absorber Tinosorb S in the component [3, 9]: N

Compound: CC(C)CCCC(C)CCCC(C)CCCCC(C)CCCC(C)CCCC(C)C (stereo not shown) [Squalane, reference compound]
- Viscosity [1]: 32 mPa · s
- MIU (mean frictional coefficient) [2]: 0.40
- MMD (fluctuation of mean frictional coefficient) [2]: 0.007

Compound: CC(C)(C)C(=O)OCC1CC2CC1C1CCC(COC(=O)C(C)(C)C)C21 (stereo not shown) [TCDDNP, 3,8-bis-(neopentanoyloxymethyl)-tricyclo[5.2.1.0^2,6]decane]
- Refractive index [4]: 1.472
- Viscosity [1]: 462 mPa · s
- MIU (mean frictional coefficient) [2]: 0.28
- MMD (fluctuation of mean frictional coefficient) [2]: 0.006
- Compatibility with the oil agents (overall) [5]: excellent compatibility with the oil agents other than glycerin
- Compatibility with Cyclomethicone ([5]; 10%): C
- Compatibility with Dimethicone (10 mm^2/s) ([5]; 10%): C
- Compatibility with Ethanol ([5]; 10%): C
- Compatibility with Glycerin ([5]; 10%): N
- Compatibility with Hydrogenated polyisobutene ([5]; 10%): C
- Compatibility with Isostearic acid ([5]; 10%): C
- Compatibility with Mineral oil ([5]; 10%): C
- Compatibility with Octyldodecanol ([5]; 10%): C
- Compatibility with Olive oil ([5]; 10%): C
- Compatibility with Polyglyceryl-2 triisostearate ([5]; 10%): C
- Compatibility with Squalane ([5]; 10%): C
- Compatibility with Triethylhexanoin ([5]; 10%): C
- Compatibility with Cyclomethicone ([5]; 50%): C
- Compatibility with Dimethicone (10 mm^2/s) ([5]; 50%): C
- Compatibility with Ethanol ([5]; 50%): C
- Compatibility with Glycerin ([5]; 50%): N
- Compatibility with Hydrogenated polyisobutene ([5]; 50%): C
- Compatibility with Isostearic acid ([5]; 50%): C
- Compatibility with Mineral oil ([5]; 50%): C
- Compatibility with Octyldodecanol ([5]; 50%): C
- Compatibility with Olive oil ([5]; 50%): C
- Compatibility with Polyglyceryl-2 triisostearate ([5]; 50%): C
- Compatibility with Squalane ([5]; 50%): C
- Compatibility with Triethylhexanoin ([5]; 50%): C

Compound: CC(C)C(=O)OCC1CC2CC1C1CCCC21 (stereo not shown) [TCDIB, tricyclo[5.2.1.0^2,6]deca-8-yl-methyl isobutanoate]
- Refractive index [4]: 1.483
- Viscosity [1]: 15 mPa · s
- MIU (mean frictional coefficient) [2]: 0.27
- MMD (fluctuation of mean frictional coefficient) [2]: 0.005

Compound: CC(CC(=O)OCC1CC2CC1C1CCCC21)CC(C)(C)C (stereo not shown) [TCDIN, tricyclo[5.2.1.0^2,6]deca-8-yl-methyl isononanoate]
- Refractive index [4]: 1.479
- Viscosity [1]: 44 mPa · s
- MIU (mean frictional coefficient) [2]: 0.31
- MMD (fluctuation of mean frictional coefficient) [2]: 0.006
- Smoothness in comparison with other oil agents ([2]; comparison of MIU at similar viscosity): superior smoothness than squalane
- Solubility of ultraviolet absorber Tinosorb S in the component [3, 7]: N

Compound: CCCCC(=O)OCC1CC2CC1C1CCCC21 (stereo not shown) [TCDP, tricyclo[5.2.1.0^2,6]deca-8-yl-methyl-n-pentanoate]
- Refractive index [4]: 1.484
- Viscosity [1]: 15 mPa · s
- MIU (mean frictional coefficient) [2]: 0.29
- MMD (fluctuation of mean frictional coefficient) [2]: 0.005

Compound: Ethylhexyl hydroxystearate
- Solubility of ultraviolet absorber Tinosorb S in the component [3, 8]: (N)

Compound: Ethylhexyl isononanoate
- Solubility of ultraviolet absorber Tinosorb S in the component [3, 7]: N

Compound: Isopropyl dimerate
- Solubility of ultraviolet absorber Tinosorb S in the component [3, 9]: N

Compound: Pentaerythrityl tetraisostearate [reference compound]
- Refractive index [4]: 1.468

Compound: Polyglyceryl-2 triisostearate [reference compound]
- Viscosity [1]: 339 mPa · s
- MIU (mean frictional coefficient) [2]: 0.31
- MMD (fluctuation of mean frictional coefficient) [2]: 0.008

Compound: tricyclo[5.2.1.0^2,6]deca-8-yl-methyl isostearate [TCDIS]
- Refractive index [4]: 1.482
- Viscosity [1]: 85 mPa · s
- MIU (mean frictional coefficient) [2]: 0.40
- MMD (fluctuation of mean frictional coefficient) [2]: 0.006

From patent US10010493B2, “Ester compound, and cosmetic component and cosmetic product each containing same” (Kokyu Alcohol Kogyo Co., Ltd., priority 2014, dated 2018)
